Measured values from US6958343B2, “Thiazolopyrimidines and their use as modulators of chemokine receptor activity” (AstraZeneca, AB, priority 2000, dated 2005).

| Compound | melting point |
| --- | --- |
| Cc1nc(CSc2nc(NC(C)(C)CO)c3sc(N)nc3n2)cs1 [Example 11, 2-[[2-Amino-5-[[(2-methyl-4-thiazolyl)methyl]thio]thiazolo[4,5-d]pyrimidin-7-yl]amino]-2-methyl-1-propanol] | 250 to 252 °C |
| C[C@H](CO)Nc1nc(SCc2ccno2)nc2nc(N)sc12 [Example 9, (2R)-2-[[2-Amino-5-[(5-isoxazolylmethyl)thio]thiazolo[4,5-d]pyrimidin-7-yl]amino]-1-propanol] | 183 to 185 °C |
| Cc1nc(CSc2nc(NC(CO)CO)c3sc(N)nc3n2)cs1 [Example 10, 2-[[2-Amino-5-[[(2-methyl-4-thiazolyl)methyl]thio]thiazolo[4,5-d]pyrimidin-7-yl]amino]-1,3-propanediol] | 158 to 160 °C |
